# System: mechanically-induced ARDS in rodents
# Design: species or system male Sprague Dawley rats
# Settings: rat, in vivo
# Excerpt: The following protocol and experimental procedures were approved by the Thomas D Morris, Inc. Institutional Animal Care and Use Committee (Protocol #20-007) and are consistent with the National Institutes of Health guidelines for the humane treatment of laboratory animals. Study subjects were male Sprague Dawley rats (N=21; 250-300 g; 8-10 weeks old; Charles River Laboratories, Inc., Wilmington, Mass. housed in pairs with a 12/12 day night cycle and provided ad libitum access to feed and water.
# Animals were inducted with 1-5% isoflurane in air for initial preoperative preparation and cannulations. The anesthetic plane was maintained with a continuous intravenous infusion (0.1 mg/kg/min) into a femoral vein using a pre-filled syringe of alfaxalone acetate (Alfaxan, Schering-Plough Animal Health, Welwyn Garden City, UK) that was connected to a syringe pump (Genie Touch™, Kent Scientific, Torrington, Conn.). A second femoral vein was cannulated to be used for infusion of IV treatments. A femoral artery cannula was connected to a pressure transducer for continuous monitoring of arterial blood pressures (BIOPAC MP-150, BIOPAC Systems, Goleta, Calif.). The same femoral artery cannula was also used to collect blood samples for analysis of blood gases and chemistry (ABL90 Flex, Radiometer, Denmark). […]
substance,measurement,value
poly-oxygenated aluminum hydroxide [Ox66™],supraphysiologic levels of PAO2 or sO2,did not show supraphysiologic levels of PAO2 or sO2
